One data set deals with Pseudomonas aeruginosa. As to the kind of experiment: Antibacterial activity against Pseudomonas aeruginosa at 10 ug/ml for 24 hrs by disc diffusion method. It is filed as functional. (A growth-free zone around the sample is the usual read-out of agar diffusion tests.)
The subject of another data set is Escherichia coli. As to the kind of experiment: Antibacterial activity against Escherichia coli at 10 ug/ml for 24 hrs by disc diffusion method. It is filed as functional.
For the next data set, the system named is Micrococcus. Briefly: Antibacterial activity against Micrococcus sp. at 10 ug/ml for 24 hrs by disc diffusion method. The data set is classed as functional.
For another data set, the system named is Bacillus subtilis. As to the kind of experiment: Antibacterial activity against Bacillus subtilis at 10 ug/ml for 24 hrs by disc diffusion method. The data set is classed as functional.
In the next data set the test system is Bacillus cereus. Briefly: Antibacterial activity against Bacillus cereus at 10 ug/ml for 24 hrs by disc diffusion method. It is filed as functional.
The next data set relates to Shigella dysenteriae. As to the kind of experiment: Antibacterial activity against Shigella dysenteriae at 10 ug/ml for 24 hrs by disc diffusion method. It is filed as functional.
For a further data set, the system named is Staphylococcus aureus. Briefly: Antibacterial activity against Staphylococcus aureus at 10 ug/ml for 24 hrs by disc diffusion method. The data set is classed as functional.
In another data set the test system is Penicillium. Briefly: Antifungal activity against Penicillium at 10 ug/ml for 48 hrs by disc diffusion method. The data set is classed as functional.
The subject of a further data set is Aspergillus niger. Briefly: Antifungal activity against Aspergillus niger at 10 ug/ml for 48 hrs by disc diffusion method. It is filed as functional.
Another data set has as its system Candida albicans. Briefly: Antifungal activity against Candida albicans at 10 ug/ml for 48 hrs by disc diffusion method. The data set is classed as functional.
The test system of another data set is Artemia salina. Briefly: Toxicity against Artemia salina. It is filed as organism-based. The conditions noted are these: in vivo.

With GENTAMICIN, the Activity in the data set with Pseudomonas aeruginosa, in the data set with Escherichia coli, in the data set with Micrococcus, in the data set with Bacillus subtilis, in the data set on Bacillus cereus and with Shigella dysenteriae was 20 mm each time. In the data set with Staphylococcus aureus, the Activity is 20 mm.

With `OC(Cn1cncn1)(Cn1cncn1)c1ccc(F)cc1F` [FLUCONAZOLE], the Activity in the data set with Penicillium, in the data set on Aspergillus niger and with Candida albicans was 24 mm throughout.

For `Cc1cc2c(O)c(c1)/C=N\NC(=O)c1ccc(cc1)C(=O)N/N=C\c1cc(O)c(cc1C)/C=N\NC(=O)c1ccc(cc1)C(=O)NN=C2`, the Activity was found to be 20 mm in the data set on Penicillium; 14 mm in the data set on Pseudomonas aeruginosa; 16 mm with Escherichia coli; 14 mm in the data set on Micrococcus; 20 mm in the data set with Bacillus subtilis; 16 mm in the data set on Bacillus cereus. Also, the Activity in the data set on Shigella dysenteriae is on record as 16 mm; in the data set with Artemia salina, “Non-toxic”; in the data set with Staphylococcus aureus it was 10 mm; in the data set with Aspergillus niger it was 22 mm; in the data set on Candida albicans, 16 mm.

The values above are taken from ChEMBL document CHEMBL1153614, “Synthesis, spectral characterization, in-vitro microbiological evaluation and cytotoxic activities of novel macrocyclic bis hydrazone” (Eur J Med Chem, 2009).
